Data on 3 compounds can be found in PMC6514812, “[^18F]Fluoroethyltriazolyl Monocyclam Derivatives as Imaging Probes for the Chemokine Receptor CXCR4” (Molecules, 2019).

Read-outs that look alike come from different tables or passages of the source. Non-standard residues stand in square brackets, D forms with d. Residues, ends and D or L forms follow the SMILES beside them. Groups on a side chain read outwards from the residue. *: point of attachment. DOTA = O=C(O)CN1CCN(CC(=O)O)CCN(CC(=O)*)CCN(CC(=O)O)CC1; 2Nal = N[C@@H](Cc1ccc2ccccc2c1)C(=O)O; dNMeOrn = CN[C@H](CCCN)C(=O)O; 4Amb = NCc1ccc(C(=O)O)cc1

Series [1] can be described thus: Biodistribution in mice bearing bilateral PC3-WT/PC3-CXCR4 xenograft tumors. Format: in vivo, BALB/c mice. As to conditions: male, BALB/c athymic nude, mouse, iv, total radioactivity; for tissue to tissue ratio at 2 h: 2 h p.i. On the procedure: (§1) All animal studies were approved by the Institutional Animal Care and Use Committee of Weill Cornell Medicine (Protocol Number: 2015-0066) and were undertaken in accordance with the guidelines set forth by the USPHS Policy on Humane Care and Use of Laboratory Animals. Animals were housed under standard conditions in approved facilities with 12 h light/dark cycles. Food and water was provided ad libitum throughout the course of the studies. Hairless 6-to-8-week old male BALB/c inbred athymic nude mice (Jackson Laboratory, Bar Harbor, ME, USA) were inoculated bilaterally with 0.2 mL of a 1:1 mixture of 10^7 PC3-CXCR4 cells in PBS and Matrigel (Corning, Tewksbury, MA, USA) subcutaneously in the left shoulder and 0.2 mL of a 1:1 mixture of 10^7 PC3-WT cells in PBS and Matrigel subcutaneously in the right shoulder. Imaging and biodistribution studies were performed three weeks post-implantation, when tumors were approximately 100–300 mm^3.
(§2) For the biodistribution studies, tumor-bearing animals (n = 5/compound/time point) were injected intravenously with 50–100 μL of a 9% v/v EtOH/saline solution containing approximately 1.1 MBq of the radioligand. […] The mice were euthanized at 1 or 2 h p.i. and tissues including blood, heart, lungs, liver, small intestine, large intestine, stomach (with contents), spleen, pancreas, kidneys, muscle, bone, PC3-WT tumors, PC3-CXCR4 tumors, and tail were collected. All organs were weighed and placed in test tubes for counting in a Wizard^2 Gamma Counter (PerkinElmer, Waltham, MA, USA). For comparison, 1% injected activity standards were prepared and counted along with the tissue samples. The tails were counted to correct for any dose extravasation. Activity in each tissue was corrected for decay and for injected activity and expressed as percent injected dose per gram of tissue (%ID/g) ± standard error.

For series [2], the system named is PC3-CXCR4 xenograft tumors. The description is as above. As to conditions: 2 h p.i. In kind it is in vivo, BALB/c mice. Here is the method:
as §1, §2

In series [3] the target is T1, CXCR4 (Homo sapiens, UniProt P61073).
T1 construct: expressed in transfected cells; host or cells: PC3 (human prostate cancer) cells stably transduced with CXCR4
T1 sequence (P61073 whole entry): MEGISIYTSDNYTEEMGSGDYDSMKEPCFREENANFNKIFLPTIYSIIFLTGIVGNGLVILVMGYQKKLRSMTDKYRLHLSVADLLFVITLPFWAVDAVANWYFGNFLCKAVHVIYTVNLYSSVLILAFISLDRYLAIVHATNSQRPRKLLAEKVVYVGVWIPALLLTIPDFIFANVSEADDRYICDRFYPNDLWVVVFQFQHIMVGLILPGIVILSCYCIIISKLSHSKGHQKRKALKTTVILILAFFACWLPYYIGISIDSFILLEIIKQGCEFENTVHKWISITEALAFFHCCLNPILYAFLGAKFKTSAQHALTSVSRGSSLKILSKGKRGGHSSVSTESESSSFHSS
As to the kind of experiment: Competition binding assay vs [^68Ga]Pentixafor in PC3-CXCR4 cells. As to conditions: for Hill Slope, Competitive Binding Experiment: vs [^68Ga]Pentixafor, value ± SD. On the procedure:
PC3-CXCR4 cells were plated in 12-well plates at a density of 500,000 cells per well and incubated for 48 h at 37 °C/5% CO2. Prior to the binding assay the cells were incubated in fresh media and 370–555 kBq of [^68Ga]Pentixafor or [^18F]RPS-544 was added to each well. The corresponding concentration of [^68Ga]Pentixafor in each well was 100 nM, and the concentration of [^18F]RPS-544 was approximately 5 pM. Then non-radioactive ligands were added to give a final ligand concentration in the range 0.001–10,000 nM. A total of eight concentrations were studied, and each concentration was tested in triplicate. The cells were incubated for 60 min at 37 °C/5% CO2. The media was removed under suction, the cells were washed with cold PBS 1X and detached and transferred to tubes for counting in 1 M NaOH. The cells were counted in a Wizard^2 Gamma Counter (PerkinElmer, Waltham, MA, USA). Non-specific binding was subtracted, and the IC50 values were determined by assuming a simple competitive binding interaction and fitting the data to a sigmoidal Hill plot in Origin 9.0 (OriginLab, Northampton, MA, USA). Potencies are expressed as IC50 ± standard deviation (Supplemental Data, Figure S7).

In series [4] the target is T1, CXCR4. Put plainly: Saturation binding assay in PC3-CXCR4 cells. On the procedure:
To determine the dissociation constants, saturation binding assays were performed in the PC3-CXCR4 cells. The cells were plated as described above, and approximately 5 nM of the radioligand was added to each well. Then the corresponding non-radioactive ligand was added to give a final concentration in the range 0.001–10,000 nM. A total of eight concentrations were tested, and each concentration was tested in triplicate. The samples were washed and counted as described above. Non-specific binding was subtracted, and Kd values were determined by performing a nonlinear one site binding curve fit with equation y = (Bmax · x)/(Kd + x). Values are expressed as Kd ± standard deviation (Supplemental Data, Figure S8).

A further series has as its system PC3-CXCR4 cells. As to the kind of experiment: Cell-associated activity in PC3-CXCR4 cells. In kind it is cell-based, human. The note with it: 1 h. Here is the method:
Maximum cell-associated activity was calculated by subtracting the cell uptake of the radioactive ligand at the highest non-radioactive ligand concentration of 10 µM (which we considered to be non-specific uptake/binding) from the cell uptake at the lowest non-radioactive ligand concentration of 10^−5 µM.

Regarding `CN1C(=O)[C@@H](Cc2ccc(O)cc2)NC(=O)CNC(=O)[C@H](Cc2ccc3ccccc3c2)NC(=O)[C@H](CCCNC(=N)N)NC(=O)[C@H]1CCCNC(=O)c1ccc(CNC(=O)CN2CCN(CC(=O)O)CCN(CC(=O)O)CCN(CC(=O)O)CC2)cc1` (68Ga complex, metal not drawn) [Pentixafor, reference compound] (cyclo([dY][dNMeOrn]([4Amb-DOTA])R[2Nal]G)), the tissue to tissue ratio at 1 h amounted to 2 ± 0.2 in series [1] (PC3-CXCR4 tumor and PC3-WT tumor, 1 h p.i., read-out: PC3-CXCR4 Tumor-to-Tissue Ratio PC3-WT); 11.4 ± 0.2 in series [1] (PC3-CXCR4 tumor and blood, 1 h p.i., read-out: PC3-CXCR4 Tumor-to-Tissue Ratio Blood); 28.7 ± 0.2 in series [1] (PC3-CXCR4 tumor and bone, 1 h p.i., read-out: PC3-CXCR4 Tumor-to-Tissue Ratio Bone); 4 ± 0.2 in series [1] (PC3-CXCR4 tumor and kidneys, 1 h p.i., read-out: PC3-CXCR4 Tumor-to-Tissue Ratio Kidneys); 10.8 ± 0.2 in series [1] (PC3-CXCR4 tumor and liver, 1 h p.i., read-out: PC3-CXCR4 Tumor-to-Tissue Ratio Liver); 11.8 ± 0.2 in series [1] (PC3-CXCR4 tumor and lungs, 1 h p.i., read-out: PC3-CXCR4 Tumor-to-Tissue Ratio Lungs). For the same compound, in series [1] (PC3-CXCR4 tumor and muscle, 1 h p.i., read-out: PC3-CXCR4 Tumor-to-Tissue Ratio Muscle), the tissue to tissue ratio at 1 h amounted to 56.1 ± 0.2. For the same compound, the tissue to tissue ratio at 2 h in series [1] (PC3-CXCR4 tumor and PC3-WT tumor, read-out: PC3-CXCR4 Tumor-to-Tissue Ratio PC3-WT) was found to be 2.8 ± 0.1; in series [1] (PC3-CXCR4 tumor and blood, read-out: PC3-CXCR4 Tumor-to-Tissue Ratio Blood), 31.1 ± 0.1; in series [1] (PC3-CXCR4 tumor and bone, read-out: PC3-CXCR4 Tumor-to-Tissue Ratio Bone), 47.2 ± 0.1; in series [1] (PC3-CXCR4 tumor and kidneys, read-out: PC3-CXCR4 Tumor-to-Tissue Ratio Kidneys) it was 5.3 ± 0.1; in series [1] (PC3-CXCR4 tumor and liver, read-out: PC3-CXCR4 Tumor-to-Tissue Ratio Liver) it was 10.8 ± 0.1; in series [1] (PC3-CXCR4 tumor and lungs, read-out: PC3-CXCR4 Tumor-to-Tissue Ratio Lungs), 17.1 ± 0.1. Further, the tissue to tissue ratio at 2 h in series [1] (PC3-CXCR4 tumor and muscle, read-out: PC3-CXCR4 Tumor-to-Tissue Ratio Muscle) is 101.2 ± 0.1. Besides, the tissue uptake at 1 h in series [1] (PC3-CXCR4 tumor, 1 h p.i., read-out: Maximum PC3-CXCR4 tumor activity) turned out to be 14.6 ± 2.7 %ID/g. For the same compound, the “PC3-CXCR4 Tumor-to-Tissue Ratio Blood” value in series [2] is 32.1 ± 0.1. Further, the “PC3-CXCR4 ratio to all normal tissue except kidneys” value in series [2] is “greater than 10”.

Consider `c1ccc(CNCc2ccc(CN3CCCNCCNCCCNCC3)cc2)nc1` [AMD-3465, reference compound], for which the “Hill Slope, Competitive Binding Experiment” value at CXCR4 [3] is reported as 1.01 ± 0.30.

As a reminder, the IC50 is the concentration needed to halve the response being measured. What is called Kd is the constant that tells how readily two partners part at equilibrium. For `FCCn1cc(NCc2ccc(CN3CCCNCCNCCCNCC3)cc2)nn1` [RPS-546], the IC50 on CXCR4 [3] (vs 100 nM [^68Ga]Pentixafor, PC3-CXCR4 cells, 60 min 37 °C) is ~1500 nM. Besides, the “Hill Slope, Competitive Binding Experiment” value on CXCR4 [3] came out at 0.96 ± 0.10. Besides, on CXCR4 [4] (saturation binding, PC3-CXCR4 cells), the Kd was ~1700 nM. Further, the “Hill Slope, Saturation Binding Experiment” value at CXCR4 [4] (value ± SD) turned out to be 0.98 ± 0.19. Moreover, the “Cell-Associated Activity” value in the series on PC3-CXCR4 cells came to 1.2 ± 0.1 %IA.
